≈ marks a conversion by molar mass, not a printed value.
How the values were obtained:
[1] = system: adenain (human adenovirus serotype 8); assay: Inhibition of human adenovirus serotype 8 adenain protease expressed in Escherichia coli […] (DE3) using Ac-WLRGG*ARC(PT14)-NH2 as substrate by FLT assay
[2] = molecular target: T1, Cathepsin K (Homo sapiens, UniProt P43235)
T1 sequence (P43235 whole entry): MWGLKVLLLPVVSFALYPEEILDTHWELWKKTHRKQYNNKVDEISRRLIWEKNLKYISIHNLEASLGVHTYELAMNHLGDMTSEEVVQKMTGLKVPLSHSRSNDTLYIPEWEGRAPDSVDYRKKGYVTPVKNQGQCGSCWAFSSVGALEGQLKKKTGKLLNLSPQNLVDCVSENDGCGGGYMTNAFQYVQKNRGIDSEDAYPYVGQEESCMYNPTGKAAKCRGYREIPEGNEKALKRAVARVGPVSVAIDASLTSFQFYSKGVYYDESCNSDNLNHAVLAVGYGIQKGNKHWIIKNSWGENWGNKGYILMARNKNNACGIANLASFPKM
Description: Inhibition of human recombinant Cathepsin K using fluorogenic peptide substrate

[3] = system: Human adenovirus 5; assay: Antiviral activity against human adenovirus 5 infected in HEK293 cells assessed as reduction in viral induced cytopathogenicity incubated for 5 days by Celltiter-Glo luminescent cell viability assay; format: functional, organism-based; details: Human mastadenovirus C, HEK293, 120 h
[4] = molecular target: Procathepsin L (Homo sapiens, UniProt P07711)
Description: Inhibition of human recombinant Cathepsin L using fluorogenic peptide substrate

[5] = molecular target: Cathepsin B (Homo sapiens, UniProt P07858)
Description: Inhibition of human recombinant Cathepsin B using fluorogenic peptide substrate

[6] = molecular target: Cathepsin S (Homo sapiens, UniProt P25774)
Description: Inhibition of human recombinant Cathepsin S using fluorogenic peptide substrate

[7] = system: adenain (human adenovirus serotype 5); assay: Inhibition of human adenovirus serotype 5 adenain protease expressed in Escherichia coli […] (DE3) using Ac-WLRGG*ARC(PT14)-NH2 as substrate by FLT assay
[8] = molecular target: Dipeptidyl peptidase 1 (Homo sapiens, UniProt P53634)
Description: Inhibition of human recombinant Cathepsin C using fluorogenic peptide substrate

[9] = Permeability of the compound by PAMPA; format: ADME
[10] = Equilibrium solubility of the compound at pH 6.8; format: physicochemical; details: buffer

Cathepsin S, sequence (P25774 whole entry): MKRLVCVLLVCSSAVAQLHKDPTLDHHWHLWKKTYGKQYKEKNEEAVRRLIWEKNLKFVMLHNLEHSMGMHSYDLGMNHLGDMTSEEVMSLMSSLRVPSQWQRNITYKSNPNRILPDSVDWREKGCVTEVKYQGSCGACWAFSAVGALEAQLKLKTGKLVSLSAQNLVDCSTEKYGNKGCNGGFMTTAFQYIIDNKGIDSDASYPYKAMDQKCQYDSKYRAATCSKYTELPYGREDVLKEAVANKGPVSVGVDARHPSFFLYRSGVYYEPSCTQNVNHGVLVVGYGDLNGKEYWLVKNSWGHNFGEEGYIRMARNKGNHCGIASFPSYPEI
Dipeptidyl peptidase 1, sequence (P53634 25-134 limits assumed): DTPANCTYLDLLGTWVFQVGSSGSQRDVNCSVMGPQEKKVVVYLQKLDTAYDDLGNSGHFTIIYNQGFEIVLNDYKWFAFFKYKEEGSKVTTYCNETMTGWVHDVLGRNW
Dipeptidyl peptidase 1, sequence (P53634 231-394 limits assumed): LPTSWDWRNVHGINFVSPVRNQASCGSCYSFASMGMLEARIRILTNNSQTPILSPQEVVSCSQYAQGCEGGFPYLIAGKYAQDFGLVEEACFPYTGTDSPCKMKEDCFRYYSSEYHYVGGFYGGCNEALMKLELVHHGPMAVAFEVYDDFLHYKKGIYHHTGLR
Dipeptidyl peptidase 1, sequence (P53634 395-463 limits assumed): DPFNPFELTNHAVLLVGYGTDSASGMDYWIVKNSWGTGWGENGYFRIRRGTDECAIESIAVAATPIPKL
Procathepsin L, sequence (P07711 whole entry): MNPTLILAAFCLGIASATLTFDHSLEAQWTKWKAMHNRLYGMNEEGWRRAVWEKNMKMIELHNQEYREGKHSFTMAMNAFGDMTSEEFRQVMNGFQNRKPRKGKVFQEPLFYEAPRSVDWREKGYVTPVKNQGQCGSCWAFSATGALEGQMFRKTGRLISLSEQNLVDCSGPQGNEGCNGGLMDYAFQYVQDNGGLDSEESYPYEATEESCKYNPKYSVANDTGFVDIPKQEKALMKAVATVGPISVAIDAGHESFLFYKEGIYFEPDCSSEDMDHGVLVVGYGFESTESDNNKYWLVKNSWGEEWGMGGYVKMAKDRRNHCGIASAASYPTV

Compound | IC50 [1] [µM] | IC50 [2] [µM] | IC50 [4] [µM] | IC50 [5] [µM] | IC50 [6] [µM] | IC50 [7] [µM] | IC50 [8] [µM] | logPm [9] | solubility thermodynamic [10] [µM] | EC50 [3] [µM]
COc1ccc(C(=O)NCC(=O)NC/C=C/S(C)(=O)=O)cc1C(=O)C(C)(C)c1cc(Cl)cc(Cl)c1 | 0.001 | > 100 | > 100 | > 100 | > 100 | 0.001 | > 100 | -4.1 |  | 
COc1ccc(C(=O)NCC(=O)NCC#N)cc1C(=O)C(C)(C)c1cc(Cl)cc(Cl)c1 | 0.04 | > 100 | > 100 | > 100 | > 100 | 0.03 | > 100 | -5 | 50 (≈ 23.1 µg/mL) | 
CN(C)CCOc1ccc(C(=O)NCc2ccnc(C#N)n2)cc1C(=O)C(C)(C)c1cc(Cl)cc(Cl)c1 | 0.0001 | 19 | > 11 | 81 | 24 | 0.0001 | 18 | -4.2 | 490 (≈ 265 µg/mL) | 3.9
COc1ccc(C(=O)NCC(=O)NCC#N)cc1C(=O)C(C)c1cc(Cl)cc(Cl)c1 (configuration not stated) | 0.95 |  |  |  |  | 0.31 |  |  |  | 
CS(=O)(=O)N[C@H](C(=O)N[C@@H](Cc1ccccc1)C(=O)NCC(=O)NCC#N)c1cccc(Cl)c1 | 0.04 |  |  |  |  | 0.03 |  | -5.6 |  | 

The next lines start with results.

IC50 [1] [µM] | IC50 [2] [µM] | IC50 [4] [µM] | IC50 [5] [µM] | IC50 [6] [µM] | IC50 [7] [µM] | IC50 [8] [µM] | logPm [9] | solubility thermodynamic [10] [µM] | Compound | EC50 [3] [µM]
< 0.001 | 73 | > 100 | > 100 | > 100 | < 0.001 | > 100 |  |  | CCN[C@H](C(=O)N[C@H](C(=O)NCC(=O)NC/C=C/S(C)(=O)=O)C(C)(C)C)c1cc(Cl)cc(Cl)c1 | 31
2.74 |  |  |  |  | 1.1 |  |  |  | COc1ccc(C(=O)NCC(=O)NCC#N)cc1C(=O)Cc1cc(Cl)cc(Cl)c1 | 
0.01 | > 100 | 100 | > 100 | > 100 | 0.007 | > 100 | -5.5 | > 1000 | CN(C)CCOc1ccc(C(=O)NCC(=O)NCC#N)cc1C(=O)C(C)(C)c1cc(Cl)cc(Cl)c1 | 
0.004 | > 100 | > 100 | > 100 | > 100 | 0.002 | > 100 | -5.5 |  | CC[C@H](C(=O)N[C@H]1CCN(CC(=O)NC/C=C/S(C)(=O)=O)C1=O)c1cc(Cl)cc(Cl)c1 | 8.9
0.0006 | 9.5 | 5.6 | 8.1 | 1 | 0.0002 | 66 |  |  | COc1ccc(C(=O)NCc2ccnc(C#N)n2)cc1C(=O)C(C)(C)c1cc(Cl)cc(Cl)c1 | > 50
0.01 | 95 | > 100 | > 100 | > 100 | 0.01 | > 100 | -5.6 |  | CC(C)(C)[C@H](NC(=O)Cc1cc(Cl)cc(Cl)c1)C(=O)NCC(=O)NC/C=C/S(C)(=O)=O | 4.5

— ChEMBL document CHEMBL3352786, “Structure-based design and optimization of potent inhibitors of the adenoviral protease” (Bioorg Med Chem Lett, 2015)
